The structures appear in SMILES notation.

The series in a line: Thermogravimetric analysis (thermal stability). Format: physicochemical. Particulars: heated from room temperature to 700° C. at 5° C./min under argon flux. An excerpt:
More detailed crystallographic results are provided in FIGS. 17a and 17b and the table in FIG. 7. The 0D structure at the molecular level was clearly observed in (TPA-P)2ZnBr4 with ZnBr4^2− tetrahedrons completely isolated and surrounded by TPA-P^+ cations. The zinc center adopted a typical tetra-coordinated geometry bonded to the bromide ions, with an average Zn—Br bond length of 2.41 Å and bond angle of 109.740 (see also the table in FIG. 8).
Thermal Stability Analysis: TGA studies were done using a TA instruments Q600 system. The sample was heated from room temperature to 700° C. at a 5° C./min rate under an argon flux of 100 ml/min.

As for `CCC[n+]1ccc(-c2ccc(N(c3ccccc3)c3ccccc3)cc2)cc1.[Br-]` [TPA-PBr, 4-(4-(diphenylamino)phenyl)-1-(Propyl)-pyrindin-lium bromide], the “onset weight loss (thermogravimetric analysis)” value amounted to 211 °C.

The record behind these values is patent publication US20240034929A1, “SCINTILLATION MATERIALS AND METHODS” (Florida State University Research Foundation, Inc., priority 2022, published 2024).
